The nature of this test: EBV protein-peptide binding inhibitors, dose response, biochemical, fluorescence polarization (AID 1419). Particulars: cell-free protein-peptide binding, 2 h; for fold change: measured here: P channel fold over control, at 54 µM. On the technique in general: Fluorescence polarisation rises when a labelled molecule tumbles more slowly, as on binding a larger partner.

Calls of active or inactive are those of the source. The rule behind the calls is not given here. A value given as a limit tells only on which side of the number the result lay.

What is called IC50 is the concentration that inhibits the measured activity by half. Consider `CC(=O)c1ccc(NC(=O)CSc2ccsc2[N+](=O)[O-])cc1`, for which the IC50 was > 54 µM (inactive) and the fold change was found to be 1.06.

As for `CC1C2C(C)N(C)C(=O)N(C)C2N(C)C(=O)N1C` (stereo not drawn), the IC50 was 8.68 µM and the fold change amounted to 8.94.

With `Nc1cccc2c1C(=O)N(CC(=O)NC13CC4CC(CC(C4)C1)C3)C2=O`, the IC50 was 8.06 µM and the fold change was determined as 2.22.

Consider `O=S(=O)([N-]c1nc2ccccc2nc1-[n+]1ccc(-c2ccncc2)cc1)c1ccccc1`, for which the IC50 is 9.13 µM and the fold change turned out to be 3.54.

On to `O=Cc1ccc2oc3nc4n(c(=O)c3c(=O)c2c1)CCCS4`, for which the IC50 was > 54 µM (inactive) and the fold change is 1.03.

Regarding `O=C1N=c2ccccc2=C1c1sc(Nc2ccc(O)cc2)nc1O`, the IC50 is 1.88 µM and the fold change turned out to be 0.2.

Consider `Fc1ccccc1/C=N/Nc1ncnc2nc[nH]c12`, for which the IC50 is > 54 µM (inactive) and the fold change came to 1.17.

On to `COc1ccc(C(CC(=O)N2CCCC2)c2c(OC)cc(OC)c3c(-c4ccccc4)cc(=O)oc23)cc1` (stereo not drawn), for which the IC50 is > 54 µM (inactive) and the fold change was 0.95.

`Cc1ccc(N2C(=O)C3C(C2=O)C(C(=O)c2ccc(Cl)cc2)N2CCCC32)cc1` (stereo not drawn): the IC50 is > 54 µM (inactive) and the fold change came out at 2.44.

`CC(=O)Nc1ccc2nc3c(=O)n(C)c(=O)n(C)c3nc2c1`: the IC50 was 1 µM and the fold change is 4.35.

Turning to `CCOC(=O)c1c(=O)n(O)c2ccc(OC)cc2[n+]1[O-]`, the IC50 was 8.11 µM and the fold change is 1.8.

With `Cc1cc2nc3c(=O)n(C4CCCCC4)c(=O)[nH]c3nc2cc1N`, the IC50 was less than 0.42 µM and the fold change is 132.

For `CCCCn1nc(-c2ccccc2)c2nc3ccccc3nc21`, the IC50 was 3.13 µM and the fold change was found to be 22.6.

Regarding `O=C(/C(=C(\[O-])c1ccccc1)[n+]1ccc2ccccc2c1)c1ccc(Cl)cc1`, the IC50 was 8.26 µM and the fold change was 2.35.

Take `CCn1c(O)c(C=Nc2ccc(N3CCOCC3)cc2)c(=O)n(CC)c1=S`: the IC50 is 4.91 µM and the fold change was 36.6.

For `Cc1cc(-c2ccc(N3CCOCC3)cc2)nc2ccccc12`, the fold change was determined as 2.8.

Take `N#C/C(=C\C1=C(N2CCOCC2)C(=C/c2cccc([N+](=O)[O-])c2)/CC1)C(=O)Nc1ccccc1F`: the IC50 is 3.64 µM and the fold change was determined as 2.26.

For the compound `CC1=NOC(=O)/C1=C\c1ccc(-c2cc(Cl)ccc2Cl)o1`, the IC50 was 1.49 µM and the fold change worked out at 4.14.

On to `CCN(CC)c1ccc(/C=C(/C#N)c2nc3ccc(C)cc3[nH]2)c(OC(C)C)c1`, for which the IC50 is 1.51 µM and the fold change was 22.

With `CCOCCCNc1nc2c(C)cccn2c(=O)c1/C=C1\SC(=S)N(CC(C)C)C1=O`, the IC50 was > 54 µM (inactive) and the fold change was 1.58.

As to `COc1ccc2nc(N3CCCC(O)C3)c(C#N)cc2c1` (stereo not drawn), the IC50 is 14.6 µM and the fold change is 2.78.

Turning to `CN1C=CC2=C(C#N)C(N)C(C#N)(C#N)C(c3ccccc3)C2C1` (stereo not drawn), the IC50 is 4.53 µM and the fold change was found to be 3.69.

For `COc1ncnc2c1NC1=C(S2)C(=NCCC(=O)O)CC(C)(C)C1`, the IC50 was 0.93 µM and the fold change came to 8.12.

For the compound `CCOC(=O)/C(=C/c1ccc(N2CCC(c3ccccc3)=N2)cc1)C(C)=O`, the IC50 is 3.78 µM and the fold change is 11.8.

In the case of `O=C(c1ccco1)[C@@H]1[C@@H]2C(=O)N(c3ccc(F)cc3)C(=O)[C@@H]2C2c3ccccc3C=CN21` (stereo partly drawn), the half-maximal inhibitory concentration (IC50) was 6.26 µM and the fold change is 2.53.

Regarding `O=[N+]([O-])c1ccc(-c2cn(-c3ccc(Cl)cc3)c(=S)[nH]2)cc1`, the IC50 was > 54 µM (inactive) and the fold change came out at 0.93.

For `O=c1c(/C=N/Nc2ccccc2)c(Sc2nnnn2-c2ccccc2)nc2ccccn12`, the IC50 is 4.73 µM and the fold change amounted to 37.5.

For the origin of these results see PubChem BioAssay AID1419 (Emory University Molecular Libraries Screening Center, 2008).
